Data on 24 molecules can be found in patent US20250312352A1, “GLP-1R MODULATING COMPOUNDS” (Gilead Sciences, Inc., priority 2021, published 2025).

As a reminder, the EC50 is the concentration that produces a half-maximal response. A high value points to a need for much substance.

The structures appear in SMILES notation.

The test addresses T1, GLP-1R (Homo sapiens, UniProt P43220).
T1 construct: host or cells: CHO cells
Nature of the test: GLP-1R activation cAMP assay (Assay 1 or Assay 2). The class given is cell-based. As to conditions: cAMP increase in CHO cells stably expressing GLP-1R; compounds run on one of the two cAMP assays. A digest of the protocol: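 EC50 values come from a sigmoidal fit of HTRF-detected cAMP rise versus log agonist concentration. GLP-1R-expressing CHO cells, equilibrated 1 h at 37 °C in HBSS with HEPES and BSA, received a 10-point compound dose series for 30 min before detection.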

T1 sequence (P43220 24-463): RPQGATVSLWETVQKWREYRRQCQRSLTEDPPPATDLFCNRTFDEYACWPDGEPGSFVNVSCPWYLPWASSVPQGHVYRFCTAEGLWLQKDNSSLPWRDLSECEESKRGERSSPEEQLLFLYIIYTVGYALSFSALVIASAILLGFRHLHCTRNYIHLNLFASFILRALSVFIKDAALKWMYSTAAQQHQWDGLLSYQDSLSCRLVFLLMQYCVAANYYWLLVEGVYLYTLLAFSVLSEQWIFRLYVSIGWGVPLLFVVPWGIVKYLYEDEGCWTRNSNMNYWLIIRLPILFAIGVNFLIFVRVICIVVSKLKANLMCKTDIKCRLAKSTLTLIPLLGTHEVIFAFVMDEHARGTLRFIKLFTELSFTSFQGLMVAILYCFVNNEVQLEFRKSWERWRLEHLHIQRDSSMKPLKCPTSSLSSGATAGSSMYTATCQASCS

Take `Cn1cc(C#Cc2cc(F)c(COc3cccc(-c4cc(F)c(Cc5nc6ccc(C(=O)O)cc6n5C[C@@H]5CCO5)cc4F)n3)s2)cn1` [Example 117, (S)-2-(2,5-difluoro-4-(6-((3-fluoro-5-((1-methyl-1H-pyrazol-4-yl)ethynyl)thiophen-2-yl)methoxy)pyridin-2-yl)benzyl)-1-(oxetan-2-ylmethyl)-1H-benzo[d]imidazole-6-carboxylic acid]: the EC50 was 0.28 nM.
In the case of `O=C(O)c1ccc2nc(Cc3cc(F)c(-c4cccc(OCc5ncc(C#Cc6cnn(C7CC7)c6)s5)n4)cc3F)n(C[C@@H]3CCO3)c2c1` [Example 118, (S)-2-(4-(6-((5-((1-cyclopropyl-1H-pyrazol-4-yl)ethynyl)thiazol-2-yl)methoxy)pyridin-2-yl)-2,5-difluorobenzyl)-1-(oxetan-2-ylmethyl)-1H-benzo[d]imidazole-6-carboxylic acid] it was 0.44 nM; in that of `O=C(O)c1ccc2nc(Cc3cc(F)c(-c4cccc(OCc5ccn(-c6ccccc6)n5)n4)cc3F)n(C[C@@H]3CCO3)c2c1` [Example 120, (S)-2-(2,5-difluoro-4-(6-((1-phenyl-1H-pyrazol-3-yl)methoxy)pyridin-2-yl)benzyl)-1-(oxetan-2-ylmethyl)-1H-benzo[d]imidazole-6-carboxylic acid], 2.84 nM; in that of `COCCn1c(Cc2cc(F)c(-c3cccc(OCc4cnn(-c5ccccc5)c4)n3)cc2F)nc2ccc(C(=O)O)cc21` [Example 121, 2-(2,5-difluoro-4-(6-((1-phenyl-1H-pyrazol-4-yl)methoxy)pyridin-2-yl)benzyl)-1-(2-methoxyethyl)-1H-benzo[d]imidazole-6-carboxylic acid], 730 nM.
In the case of `COCCn1c(Cc2cc(F)c(-c3cccc(OCc4cn(-c5ccccc5)cn4)n3)cc2F)nc2ccc(C(=O)O)cc21` [Example 122, 2-(2,5-difluoro-4-(6-((1-phenyl-1H-imidazol-4-yl)methoxy)pyridin-2-yl)benzyl)-1-(2-methoxyethyl)-1H-benzo[d]imidazole-6-carboxylic acid] it was 695 nM.
In the case of `O=C(O)c1ccc2nc(Cc3cc(F)c(-c4cccc(OCc5ccc(C(F)(F)F)s5)n4)cc3F)n(C[C@@H]3CCO3)c2c1` [Example 123, (S)-2-(2,5-difluoro-4-(6-((5-(trifluoromethyl)thiophen-2-yl)methoxy)pyridin-2-yl)benzyl)-1-(oxetan-2-ylmethyl)-1H-benzo[d]imidazole-6-carboxylic acid] it was 2.65 nM; in that of `Cn1ccc(COc2cccc(-c3cc(F)c(Cc4nc5ccc(C(=O)O)cc5n4C[C@@H]4CCO4)cc3F)n2)n1` [Example 124, (S)-2-(2,5-difluoro-4-(6-((1-methyl-1H-pyrazol-3-yl)methoxy)pyridin-2-yl)benzyl)-1-(oxetan-2-ylmethyl)-1H-benzo[d]imidazole-6-carboxylic acid], 0.81 nM.
For `O=C(O)c1ccc2nc(Cc3cc(F)c(-c4cccc(OCc5ccn(-c6ccncc6)n5)n4)cc3F)n(C[C@@H]3CCO3)c2c1` [Example 125, (S)-2-(2,5-difluoro-4-(6-((1-(pyridin-4-yl)-1H-pyrazol-3-yl)methoxy)pyridin-2-yl)benzyl)-1-(oxetan-2-ylmethyl)-1H-benzo[d]imidazole-6-carboxylic acid], the response was half-maximal at 3.64 nM (EC50).
In the case of `N#Cc1ccc(COc2cccc(-c3cc(F)c(Cc4nc5ccc(C(=O)O)cc5n4C[C@@H]4CCO4)cc3F)n2)s1` [Example 126, (S)-2-(4-(6-((5-cyanothiophen-2-yl)methoxy)pyridin-2-yl)-2,5-difluorobenzyl)-1-(oxetan-2-ylmethyl)-1H-benzo[d]imidazole-6-carboxylic acid] it was 0.31 nM; in that of `NC(=O)c1ccc(COc2cccc(-c3cc(F)c(Cc4nc5ccc(C(=O)O)cc5n4C[C@@H]4CCO4)cc3F)n2)s1` [Example 127, (S)-2-(4-(6-((5-carbamoylthiophen-2-yl)methoxy)pyridin-2-yl)-2,5-difluorobenzyl)-1-(oxetan-2-ylmethyl)-1H-benzo[d]imidazole-6-carboxylic acid], 3.72 nM; in that of `N#Cc1cc(COc2cccc(-c3cc(F)c(Cc4nc5ccc(C(=O)O)cc5n4C[C@@H]4CCO4)cc3F)n2)cs1` [Example 128, (S)-2-(4-(6-((5-cyanothiophen-3-yl)methoxy)pyridin-2-yl)-2,5-difluorobenzyl)-1-(oxetan-2-ylmethyl)-1H-benzo[d]imidazole-6-carboxylic acid], 1.95 nM.
The same measure for `NC(=O)c1cc(COc2cccc(-c3cc(F)c(Cc4nc5ccc(C(=O)O)cc5n4C[C@@H]4CCO4)cc3F)n2)cs1` [Example 129, (S)-2-(4-(6-((5-carbamoylthiophen-3-yl)methoxy)pyridin-2-yl)-2,5-difluorobenzyl)-1-(oxetan-2-ylmethyl)-1H-benzo[d]imidazole-6-carboxylic acid]: 3.17 nM; for `N#Cc1csc(COc2cccc(-c3cc(F)c(Cc4nc5ccc(C(=O)O)cc5n4C[C@@H]4CCO4)cc3F)n2)c1` [Example 130, (S)-2-(4-(6-((4-cyanothiophen-2-yl)methoxy)pyridin-2-yl)-2,5-difluorobenzyl)-1-(oxetan-2-ylmethyl)-1H-benzo[d]imidazole-6-carboxylic acid]: 0.57 nM.
In turn, `NC(=O)c1csc(COc2cccc(-c3cc(F)c(Cc4nc5ccc(C(=O)O)cc5n4C[C@@H]4CCO4)cc3F)n2)c1` [Example 131, (S)-2-(4-(6-((4-carbamoylthiophen-2-yl)methoxy)pyridin-2-yl)-2,5-difluorobenzyl)-1-(oxetan-2-ylmethyl)-1H-benzo[d]imidazole-6-carboxylic acid] came in with an EC50 of 3.38 nM.
In the case of `Cn1cc(C#Cc2ccc(COc3cccc(-c4cc(F)c(Cc5nc6ccc(C(=O)O)cc6n5C[C@@H]5CCO5)cc4F)n3)c(F)c2)cn1` [Example 132, (S)-2-(2,5-difluoro-4-(6-((2-fluoro-4-((1-methyl-1H-pyrazol-4-yl)ethynyl)benzyl)oxy)pyridin-2-yl)benzyl)-1-(oxetan-2-ylmethyl)-1H-benzo[d]imidazole-6-carboxylic acid] it was 0.17 nM.
The same measure for `CC1(C#Cc2ccc(COc3cccc(-c4cc(F)c(Cc5nc6ccc(C(=O)O)cc6n5C[C@@H]5CCO5)cc4F)n3)c(F)c2)COC1` [Example 133, (S)-2-(2,5-difluoro-4-(6-((2-fluoro-4-((3-methyloxetan-3-yl)ethynyl)benzyl)oxy)pyridin-2-yl)benzyl)-1-(oxetan-2-ylmethyl)-1H-benzo[d]imidazole-6-carboxylic acid]: 0.3 nM; for `Cn1ccc(C#Cc2ccc(COc3cccc(-c4cc(F)c(Cc5nc6ccc(C(=O)O)cc6n5C[C@@H]5CCO5)cc4F)n3)c(F)c2)n1` [Example 134, (S)-2-(2,5-difluoro-4-(6-((2-fluoro-4-((1-methyl-1H-pyrazol-3-yl)ethynyl)benzyl)oxy)pyridin-2-yl)benzyl)-1-(oxetan-2-ylmethyl)-1H-benzo[d]imidazole-6-carboxylic acid]: 0.6 nM; for `Cn1nccc1C#Cc1ccc(COc2cccc(-c3cc(F)c(Cc4nc5ccc(C(=O)O)cc5n4C[C@@H]4CCO4)cc3F)n2)c(F)c1` [Example 135, (S)-2-(2,5-difluoro-4-(6-((2-fluoro-4-((1-methyl-1H-pyrazol-5-yl)ethynyl)benzyl)oxy)pyridin-2-yl)benzyl)-1-(oxetan-2-ylmethyl)-1H-benzo[d]imidazole-6-carboxylic acid]: 0.34 nM.
The same measure for `Cc1ncc(C#Cc2ccc(COc3cccc(-c4cc(F)c(Cc5nc6ccc(C(=O)O)cc6n5C[C@@H]5CCO5)cc4F)n3)c(F)c2)o1` [Example 136, (S)-2-(2,5-difluoro-4-(6-((2-fluoro-4-((2-methyloxazol-5-yl)ethynyl)benzyl)oxy)pyridin-2-yl)benzyl)-1-(oxetan-2-ylmethyl)-1H-benzo[d]imidazole-6-carboxylic acid]: 0.25 nM; for `O=C(O)c1ccc2nc(Cc3cc(F)c(-c4cccc(OCc5ccc(C#Cc6cncs6)cc5F)n4)cc3F)n(C[C@@H]3CCO3)c2c1` [Example 137, (S)-2-(2,5-difluoro-4-(6-((2-fluoro-4-(thiazol-5-ylethynyl)benzyl)oxy)pyridin-2-yl)benzyl)-1-(oxetan-2-ylmethyl)-1H-benzo[d]imidazole-6-carboxylic acid]: 0.24 nM.
Molecule `O=C(O)c1ccc2nc(Cc3cc(F)c(-c4cccc(OCc5ccc(C#Cc6cncnc6)cc5F)n4)cc3F)n(C[C@@H]3CCO3)c2c1` [Example 138, (S)-2-(2,5-difluoro-4-(6-((2-fluoro-4-(pyrimidin-5-ylethynyl)benzyl)oxy)pyridin-2-yl)benzyl)-1-(oxetan-2-ylmethyl)-1H-benzo[d]imidazole-6-carboxylic acid] displayed an EC50 of 0.28 nM.
The same measure for `O=C(O)c1ccc2nc(Cc3cc(F)c(-c4cccc(OCc5ccc(C#Cc6cccnc6)cc5F)n4)cc3F)n(C[C@@H]3CCO3)c2c1` [Example 139, (S)-2-(2,5-difluoro-4-(6-((2-fluoro-4-(pyridin-3-ylethynyl)benzyl)oxy)pyridin-2-yl)benzyl)-1-(oxetan-2-ylmethyl)-1H-benzo[d]imidazole-6-carboxylic acid]: 0.28 nM; for `O=C(O)c1ccc2nc(Cc3cc(F)c(-c4cccc(OCc5ccc(C#Cc6ccncc6)cc5F)n4)cc3F)n(C[C@@H]3CCO3)c2c1` [Example 140, (S)-2-(2,5-difluoro-4-(6-((2-fluoro-4-(pyridin-4-ylethynyl)benzyl)oxy)pyridin-2-yl)benzyl)-1-(oxetan-2-ylmethyl)-1H-benzo[d]imidazole-6-carboxylic acid]: 0.4 nM; for `O=C(O)c1ccc2nc(Cc3cc(F)c(-c4cccc(OCc5ccc(C#Cc6nccs6)cc5F)n4)cc3F)n(C[C@@H]3CCO3)c2c1` [Example 141, (S)-2-(2,5-difluoro-4-(6-((2-fluoro-4-(thiazol-2-ylethynyl)benzyl)oxy)pyridin-2-yl)benzyl)-1-(oxetan-2-ylmethyl)-1H-benzo[d]imidazole-6-carboxylic acid]: 0.33 nM.
